Where a SMILES comes first, the peptide text is derived from it. The star is where a group is joined. AMC = Cc1cc(=O)oc2cc(N*)ccc12; Boc = CC(C)(C)OC(=O)*
What was measured:
Type in all cases: biochemical
[1] = molecular target: T1, plasmin-α2-macroglobulin complex (Homo sapiens, UniProt P00747); test: Plasmin generation experiment on paper, calibrator curve with plasmin-α2-macroglobulin complex; settings: substrate 300 µM with 8 µM AMC added, constant E 100 nM
T1 construct: thrombin and plasmin can be reacted with the plasma-derived protein α2-macroglobulin; made in house
Protocol: Stock solutions: SC-FII, prepared in house 1µM; Plasmin-α2macroglobulin complex, prepared in house 1 µM; rec Human recombinant tissue factor (TF) (Innovin; Siemens) 6µM. Phospholipids (PS:PC:PE, 2:6:2) prepared in house 1 mM, Human recombinant tissue plasminogen activator (tPA), (Alteplase Boehringer Ingelheim) 36 klU, Final concentrations used: SC-FII, 100 nM, Plasmin-α2macroglobulin 100 nM: tPA 300 IU. Substrate 300 µM,
To 40 µL of plasma was added 20 µL of the substrate solution (1,35 mM in BSA 60 buffer) so as to obtain a concentration of 450 µM.
To 40 µL of this mixture were added 20 µL of the activation mixture containing the indicated concentration of Ca^++, TF, PI, tPA in BSA 5 buffer. 5 µL of this of this solution was transferred to three 6 mm diameter paper rounds at the (flat) bottom of a 96-well plate. […] The plate was read in a Fluoroscan Ascent fluorometer at 37°C. Samples were measured every 10s at 390-460 nm for 50 minutes.
A plasmin generation experiment was carried out as described in the methods section with Boc-Glu-Lys-Lys-AMC (300 µM) as a substrate to which 8 µM AMC was added. […] We simultaneously recorded a fluorescence curve from plasmin-α2-macroglobulin complex, equivalent to 100 nM plasmin. From this curve, run to completion we found Fmax to be 1778 AU, whereas F0 as measured during the lag-times, was 49,2 AUs.

[2] = molecular target: T2, thrombin (Homo sapiens, UniProt P00734); test: Standard thrombin generation experiment in plasma, ratio method (kinetic constants of substrate conversion); settings: substrate at 108 and 416 µM with 1 µM AMC added, 5 pM tissue factor, 37°C
T2 construct: from tissue; host or cells: plasma
Protocol: Plasma in solution: The TG experiments in the examples are variations on the standard experiment in which thrombin generation in plasma is measured in a 96-wells polystyrene microplate (Thermo Electron Corporation, Milford, MA, USA). All wells contained 80 µl plasma and 20 µl of a solution containing 0.5 - 5 pM tissue factor (TF) and 4 µM phospholipids (PL). To calibrator wells, 20 µl of calibrator was added instead so as to obtain the equivalent of 100 nM thrombin activity. Thrombin generation (TG) was initiated by the addition of 20 µl of substrate (standard: Z-Gly-Gly-Arg-AMC, 417 µM) and CaCl2 (16.6 mM).
• A. Addition of 80 µl plasma to each well • B. Addition of 20 µl TF/phospholipids mix or 20 µl calibrator to each well • C. Pre-heating of the plate for 10 min at 37°C • D. Addition of 20 µl FluCa kept at 37°C prior to the addition of the reaction mixture. • E. Immediate kinetic measurement of fluorescence in time (exc 390 nm / em 460 nm)
A standard thrombin generation experiment with 5 pM tissue factor was carried out, using Z-Gly-Gly-Arg-AMC as a substrate at the concentrations 108- and 416 bµM with 1µM of AMC added. Fom the fluorescence data the normalized ratio was calculated as Rt=(Fexp.t-F0)/(Fmax-F0) (dashed lines).

[3] = molecular target: T3, staphylocoagulase-thrombin (Homo sapiens, UniProt P00734); test: Conversion of a substrate concentration series by staphylocoagulase-thrombin in 1:2 diluted normal plasma on filter paper
T3 construct: Antithrombin-resistant thrombin activity can also be obtained reacting prothrombin with the protein staphylocoagulase; made in house
From the text: Surface fluorescence in plasma and in whole blood has been essentially measured in the same way as published by Ninnivagi and Apitz for whole blood (Ninivaggi M, Apitz-Castro R, Dargaud Y, de Laat B, Hemker HC, Lindhout T. Whole blood thrombin generation monitored with a calibrated automated thrombogram-based assay. Clin.Chem. 2012,58:1252-1259) or in WO2006/117246. Paper discs of 5.5 mm diameter and 180 µm thickness (Whatman 589/1, Whatman GmbH, Dassel, Germany) were placed in flat bottom wells of a 96-wells polystyrene microplate (Thermo Electron Corporation, Milford, MA, USA).
• A. Preparation of paper matrices and placement into a flat-bottom 96 wells plate • B. Addition of the fluorogenic substrate solution to the plasma or to whole blood • C. Pre-heating of the reagents and whole blood for 2 min at 37°C • D. Mixing of the whole blood and the trigger mix or calibrator 1:1 • E. Pipetting 5 µL reaction mix onto the paper matrix • F. Pipetting 40 µL of mineral oil onto the paper matrix • G. Immediate measurement of fluorescence in time (exc 485 nm / em 538 nm)
In 1:2 diluted normal plasma adsorbed on filter paper a concentration series of mPEG-Gly-Pro-Arg-RhoAc (75, 150, 225, 300, 450 and 600 µM) was converted by 100 nM of staphylocoagulase-thrombin and the resulting fluorescence recorded as further described under materials and methods. […]

T1 sequence (P00747 581-810 limits assumed): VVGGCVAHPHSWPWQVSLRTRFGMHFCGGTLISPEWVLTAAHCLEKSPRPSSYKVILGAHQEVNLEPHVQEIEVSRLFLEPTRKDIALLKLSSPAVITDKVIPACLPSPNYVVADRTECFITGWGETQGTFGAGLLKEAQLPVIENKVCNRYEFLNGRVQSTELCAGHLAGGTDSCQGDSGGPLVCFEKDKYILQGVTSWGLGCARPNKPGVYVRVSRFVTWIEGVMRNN
T1 sequence (P00747 97-580 limits assumed): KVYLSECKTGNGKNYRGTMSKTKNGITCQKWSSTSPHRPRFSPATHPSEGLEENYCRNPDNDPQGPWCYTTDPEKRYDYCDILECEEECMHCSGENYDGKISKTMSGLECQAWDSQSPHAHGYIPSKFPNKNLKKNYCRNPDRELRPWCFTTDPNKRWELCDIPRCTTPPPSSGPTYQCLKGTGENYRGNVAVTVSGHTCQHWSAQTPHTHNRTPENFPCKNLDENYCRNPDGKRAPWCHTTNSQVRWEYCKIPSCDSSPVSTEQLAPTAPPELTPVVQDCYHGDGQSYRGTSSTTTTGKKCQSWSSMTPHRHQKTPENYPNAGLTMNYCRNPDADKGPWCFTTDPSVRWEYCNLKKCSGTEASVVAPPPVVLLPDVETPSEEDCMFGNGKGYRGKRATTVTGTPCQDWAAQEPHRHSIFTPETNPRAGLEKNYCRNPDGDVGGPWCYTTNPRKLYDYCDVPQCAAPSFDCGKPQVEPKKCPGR
T1 sequence (P01023 24-1474 partner): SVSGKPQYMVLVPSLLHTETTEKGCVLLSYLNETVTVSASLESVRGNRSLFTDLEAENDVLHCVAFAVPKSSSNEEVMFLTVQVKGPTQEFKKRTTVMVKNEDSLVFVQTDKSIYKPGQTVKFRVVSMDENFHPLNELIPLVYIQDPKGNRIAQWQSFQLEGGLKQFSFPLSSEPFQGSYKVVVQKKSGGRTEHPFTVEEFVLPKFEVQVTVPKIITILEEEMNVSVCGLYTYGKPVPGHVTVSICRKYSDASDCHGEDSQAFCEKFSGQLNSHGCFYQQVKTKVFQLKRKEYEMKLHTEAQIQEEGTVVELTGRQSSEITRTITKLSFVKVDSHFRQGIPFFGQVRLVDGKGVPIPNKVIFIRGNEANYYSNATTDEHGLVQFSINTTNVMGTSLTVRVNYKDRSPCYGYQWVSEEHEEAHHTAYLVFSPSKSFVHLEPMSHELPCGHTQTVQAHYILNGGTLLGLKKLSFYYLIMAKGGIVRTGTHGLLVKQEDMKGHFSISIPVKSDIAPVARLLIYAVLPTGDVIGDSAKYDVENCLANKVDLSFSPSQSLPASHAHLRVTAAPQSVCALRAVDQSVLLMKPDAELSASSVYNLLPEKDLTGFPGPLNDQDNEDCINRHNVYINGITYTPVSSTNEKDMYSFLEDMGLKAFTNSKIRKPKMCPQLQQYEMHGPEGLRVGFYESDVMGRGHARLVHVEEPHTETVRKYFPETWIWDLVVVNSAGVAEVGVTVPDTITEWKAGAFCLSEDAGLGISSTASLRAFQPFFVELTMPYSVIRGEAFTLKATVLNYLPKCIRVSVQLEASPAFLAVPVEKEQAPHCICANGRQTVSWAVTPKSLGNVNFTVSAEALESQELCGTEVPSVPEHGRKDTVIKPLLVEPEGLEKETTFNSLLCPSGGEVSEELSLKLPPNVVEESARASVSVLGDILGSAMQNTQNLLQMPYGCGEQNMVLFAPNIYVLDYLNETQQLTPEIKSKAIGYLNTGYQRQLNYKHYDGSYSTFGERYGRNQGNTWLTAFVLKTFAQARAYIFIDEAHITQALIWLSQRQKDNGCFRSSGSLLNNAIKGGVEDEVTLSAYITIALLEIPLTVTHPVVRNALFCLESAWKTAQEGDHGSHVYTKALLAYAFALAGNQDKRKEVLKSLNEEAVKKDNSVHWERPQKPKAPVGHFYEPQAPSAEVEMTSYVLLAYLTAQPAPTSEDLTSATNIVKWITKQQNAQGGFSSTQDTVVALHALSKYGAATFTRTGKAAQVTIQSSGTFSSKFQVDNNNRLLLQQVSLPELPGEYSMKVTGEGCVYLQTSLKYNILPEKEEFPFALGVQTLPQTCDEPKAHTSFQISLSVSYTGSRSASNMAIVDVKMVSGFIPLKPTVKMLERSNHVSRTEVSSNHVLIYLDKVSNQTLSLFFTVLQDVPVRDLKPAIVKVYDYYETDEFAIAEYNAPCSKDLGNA

Cc1cc(=O)oc2cc(NC(=O)[C@H](CCCCN)NC(=O)[C@H](CCCCN)NC(=O)[C@H](CCC(=O)O)NC(=O)OC(C)(C)C)ccc12 [Boc-Glu-Lys-Lys-AMC, ButylOxyCarbonyl-Glu-Lys-Lys-AMC] (Boc-Glu-Lys-Lys-{AMC})
Km/kcat [1]: 8660 nM·min

Cc1cc(=O)oc2cc(NC(=O)C(CCCNC(=N)N)NC(=O)CNC(=O)CNC(=O)OCc3ccccc3)ccc12 (stereo not drawn) [Z-Gly-Gly-Arg-AMC]
Km [2]: 900 µM | kcat [2]: 1.9 s⁻¹

mPEG-Gly-Pro-Arg-RhoAc
Km/kcat ([3]; enzyme concentration 100 nM, any substrate concentration ≤ 600 µM): 11,36 µM.min | Km ([3]; substrate 75-600 µM, 100 nM staphylocoagulase-thrombin, inferred from reaction velocity proportional to substrate concentration): > 600 µM

From patent EP3363912B1, “SELF-CALIBRATED ASSAY FOR DETERMINING PROTEOLYTIC ENZYME GENERATION, DEDICATED MEANS AND USES THEREOF” (Synapse B.V., priority 2017, dated 2018)
